Laboratory results as given in ChEMBL document CHEMBL1201862, “PubChem BioAssay data set” (2004).
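Exposure lasted 48 hours, with cells grown in 96-well plates and compounds tested at five concentrations. At the GI50, growth is halved.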 Calls of active or inactive are those of the source. Rule as the data show it: active = GI50 up to about 1.1 µM and inactive = higher.

Tests used:
Assay in all cases: growth of human tumour cells (NCI), 48 h
[1] = test system: OVCAR-4
[2] = test system: SF-295
[3] = test system: SK-OV-3
[4] = test system: IGROV-1
[5] = test system: TK-10
[6] = test system: SNB-19
[7] = test system: SF-539
[8] = test system: NCI-H522
[9] = test system: A549
[10] = test system: SF-268
[11] = test system: SK-MEL-28
[12] = test system: SNB-75
[13] = test system: T47D
[14] = test system: RPMI-8226
[15] = test system: MDA-MB-435
[16] = test system: HCC 2998
[17] = test system: ACHN
[18] = test system: SW-620
[19] = test system: KM12
[20] = test system: OVCAR-3

| SMILES | GI50 [1] | GI50 [2] | GI50 [3] | GI50 [4] | GI50 [5] | GI50 [6] | GI50 [7] | GI50 [8] | GI50 [9] | GI50 [10] | GI50 [11] | GI50 [12] | GI50 [13] | GI50 [14] | GI50 [15] | GI50 [16] | GI50 [17] | GI50 [18] | GI50 [19] | GI50 [20] |
| --- | --- | --- | --- | --- | --- | --- | --- | --- | --- | --- | --- | --- | --- | --- | --- | --- | --- | --- | --- | --- |
| CCCCNCC(=O)O[C@]1(CC)C(=O)OCc2c1cc1n(c2=O)Cc2cc3ccccc3nc2-1 | 7.19 µM (inactive) | 0.0705 µM (active) | 0.658 µM (active) | 2.3 µM (inactive) | 6.15 µM (inactive) | 0.0542 µM (active) | 0.0832 µM (active) | 0.224 µM (active) | 0.185 µM (active) | 0.0851 µM (active) | 2.17 µM (inactive) | 0.098 µM (active) | 0.219 µM (active) | 0.385 µM (active) | 1.57 µM (inactive) | 1.74 µM (inactive) | 0.037 µM (active) | 0.0836 µM (active) | 1.63 µM (inactive) | 2.16 µM (inactive) |
| O=c1[nH]c2cc3cccnc3c(Cl)c2nc1C(F)(F)F | 21.8 µM (inactive) | 41 µM (inactive) | 57.3 µM (inactive) | 12.6 µM (inactive) | 68.9 µM (inactive) | 54.7 µM (inactive) | 40.6 µM (inactive) | 28.6 µM (inactive) | 41.4 µM (inactive) | 60.7 µM (inactive) | 62.8 µM (inactive) | 27.5 µM (inactive) | 33.6 µM (inactive) | 26.5 µM (inactive) | 33.7 µM (inactive) | 42 µM (inactive) | 35.9 µM (inactive) | > 100 µM (inactive) | 21 µM (inactive) | 34.4 µM (inactive) |
| O=c1cc(/N=N\c2ccc(Cl)c(Cl)c2)[nH]c(=O)[nH]1 | 2.91 µM (inactive) | 15.3 µM (inactive) | 15.8 µM (inactive) | 1.57 µM (inactive) | 1.78 µM (inactive) | 12.1 µM (inactive) | 2.61 µM (inactive) | 1.07 µM (active) | 15.3 µM (inactive) | 2.88 µM (inactive) | 1.73 µM (inactive) | 9.62 µM (inactive) | 2.56 µM (inactive) | 2.14 µM (inactive) | 6.55 µM (inactive) | 2.45 µM (inactive) | 1.62 µM (inactive) | 1.86 µM (inactive) | 2.26 µM (inactive) | 2.36 µM (inactive) |
| O=[N+]([O-])C(=C(Nc1cccc2cccnc12)Nc1cccc2cccnc12)C(Cl)=C(Cl)Cl | 34 µM (inactive) | 43 µM (inactive) | > 100 µM (inactive) | 3.98 µM (inactive) | > 100 µM (inactive) | > 96.2 µM (inactive) | > 100 µM (inactive) | 17.3 µM (inactive) | > 79.8 µM (inactive) | 42.9 µM (inactive) | > 56.9 µM (inactive) | > 100 µM (inactive) | 29.1 µM (inactive) | 23.6 µM (inactive) | 36.6 µM (inactive) | > 61.7 µM (inactive) | 22 µM (inactive) | 66.7 µM (inactive) | 45.2 µM (inactive) | 27.3 µM (inactive) |
| CCN(CC)CC[n+]1ccc2c(C)c3[nH]c4ccc(O)cc4c3c(C)c2c1 | 3.85 µM (inactive) | 3.01 µM (inactive) | 10.4 µM (inactive) | 6.44 µM (inactive) | 28.3 µM (inactive) | 1.21 µM (inactive) | 3.89 µM (inactive) | 1.96 µM (inactive) | 1.35 µM (inactive) | 1.12 µM (active) | 7.13 µM (inactive) | 1 µM (active) | 2.67 µM (inactive) | 7.31 µM (inactive) | 9.42 µM (inactive) | 6.15 µM (inactive) | 2.64 µM (inactive) | 5.57 µM (inactive) | 4.31 µM (inactive) | 14.9 µM (inactive) |
| C=C1C(O)C2OC(=O)C(=C)C2C(OC(=O)/C(C)=C/C)CC2(C)OC2C2OC12 (stereo not given) | 2.71 µM (inactive) | 14.2 µM (inactive) | 43.6 µM (inactive) | 6.15 µM (inactive) | 14.4 µM (inactive) | 19.5 µM (inactive) | 6.85 µM (inactive) | 3.15 µM (inactive) | 19.8 µM (inactive) | 4.67 µM (inactive) | 20.4 µM (inactive) | 10.4 µM (inactive) | 14.3 µM (inactive) | 2.58 µM (inactive) | 5.74 µM (inactive) | 4.89 µM (inactive) | 3.69 µM (inactive) | 8.04 µM (inactive) | 2.86 µM (inactive) | 6.28 µM (inactive) |
| COc1ccc(/C=C2\CCC(Cc3ccccc3)(CN(C)C)C2=O)cc1 (stereo not given) | 56.8 µM (inactive) | > 83.2 µM (inactive) | > 100 µM (inactive) | > 100 µM (inactive) | > 100 µM (inactive) | 51.4 µM (inactive) | 57 µM (inactive) | 31.8 µM (inactive) | 50.5 µM (inactive) | 69.5 µM (inactive) | > 72.9 µM (inactive) | 94.2 µM (inactive) | 46.7 µM (inactive) | 22.2 µM (inactive) | 32.1 µM (inactive) | 24.4 µM (inactive) | 82 µM (inactive) | 26.7 µM (inactive) | 41.1 µM (inactive) | 43.7 µM (inactive) |
| O=C(Oc1ccc2c(c1)CN(Cc1ccccc1)CO2)c1ccccc1 | 15.7 µM (inactive) | 17.8 µM (inactive) | 16.6 µM (inactive) | 13.3 µM (inactive) | 16.2 µM (inactive) | 18.7 µM (inactive) | 17.3 µM (inactive) | 7.06 µM (inactive) | 19.8 µM (inactive) | 17.3 µM (inactive) | 21.4 µM (inactive) | 17.1 µM (inactive) | 21.7 µM (inactive) | 20.6 µM (inactive) | 21.8 µM (inactive) | 14.5 µM (inactive) | 18.8 µM (inactive) | 22.8 µM (inactive) | 20.7 µM (inactive) | 15.4 µM (inactive) |
| Cc1ccc(S(=O)(=O)NC2C(=O)c3ccccc3C(=O)C2n2ccnc2)cc1 (stereo not given) | 30.9 µM (inactive) | > 100 µM (inactive) | > 100 µM (inactive) | > 100 µM (inactive) | > 100 µM (inactive) | > 100 µM (inactive) | > 100 µM (inactive) | < 0.01 µM (active) | > 100 µM (inactive) | > 100 µM (inactive) | > 100 µM (inactive) | > 100 µM (inactive) | 17.5 µM (inactive) | > 100 µM (inactive) | 17.9 µM (inactive) | > 100 µM (inactive) | > 100 µM (inactive) | > 100 µM (inactive) | > 100 µM (inactive) | 42.5 µM (inactive) |
| COc1ccc(-n2sc3ncccc3c2=O)cc1 | > 100 µM (inactive) | > 100 µM (inactive) | > 100 µM (inactive) | 23.6 µM (inactive) | 18.9 µM (inactive) | > 100 µM (inactive) | 17.3 µM (inactive) | 17.5 µM (inactive) | 69.5 µM (inactive) | 24.7 µM (inactive) | 23.6 µM (inactive) | 23.6 µM (inactive) | 17.7 µM (inactive) | 28.3 µM (inactive) | 28.8 µM (inactive) | 46.5 µM (inactive) | 19.4 µM (inactive) | 32.1 µM (inactive) | 19.1 µM (inactive) | 23 µM (inactive) |
